Test system: C. parvum Iowa isolate
Assay: Immunofluorescence assay for C. parvum growth inhibition in HCT-8 cells
Type: cell-based, Cryptosporidium parvum
Details: Cryptosporidium parvum, HCT-8, read-out: C. parvum EC50 (95% CI)
Procedure: Inhibition of C. parvum growth was measured as described previously ([20]). Oocysts were excysted by treatment with 10 mM hydrochloric acid (10 min at 37°C), followed by exposure to 2 mM sodium taurocholate (Sigma-Aldrich) in PBS for 10 min at 16°C. Excysted oocysts were then added to >95% confluent HCT-8 cell monolayers in 384-well plates at a concentration of 5,500 Iowa isolate oocysts per well. For C. parvum field isolates, the inoculum required to yield an infection level similar to that produced by 5,500 Iowa isolate oocysts per well was determined and was used for subsequent assays of parasite inhibition. Compounds were added just before or 3 h after infection, and assay plates were incubated for 48 h postinfection at 37°C under 5% CO2. Wells were then washed three times with PBS containing 111 mM D-galactose, fixed with 4% paraformaldehyde in PBS for 15 min at room temperature, permeabilized with 0.25% Triton X-100 for 10 min at 37°C, washed three times with PBS with 0.1% Tween 20, and blocked with 4% bovine serum albumin (BSA) in PBS for 2 h at 37°C or 4°C overnight. Parasitophorous vacuoles were stained with 1.33 μg/ml of fluorescein-labeled Vicia villosa lectin (Vector Laboratories) diluted in 1% BSA in PBS with 0.1% Tween 20 for 1 h at 37°C, followed by the addition of Hoechst 33258 (AnaSpec) at a final concentration of 0.09 mM diluted in water for another 15 min at 37°C. Wells were then washed five times with PBS containing 0.1% Tween 20. A Nikon Eclipse TE2000 epifluorescence microscope with an automated stage was programmed using NIS-Elements Advanced Research software (Nikon, USA) to focus on the center of each well and take a 3-by-3 composite image using an EXi Blue fluorescence microscopy camera (QImaging, Canada) with a 20× objective (numerical aperture, 0.45). Nucleus and parasite images were exported separately as .tif files and were analyzed using macros developed on the ImageJ platform (National Institutes of Health) ([20]). The only modification from the published macro used to count parasites was that the lower size threshold for parasites was decreased from 16.5 to 4 pixels (1 pixel = 0.65 μm). Graphs were plotted, and half-maximal effective concentration (EC50) and 90% effective concentration (EC90) values were calculated using GraphPad Prism software, version 6.01. For every C. parvum field isolate experiment, a dose-response experiment against the C. parvum Iowa isolate was performed simultaneously as a reference.

SMILES	EC50
c1cc2nncn2nc1N1CCNCC1 [Compound D-53, N1CCN(CC1)c1ccc2n(n1)cnn2]	> 25 µM

Same assay, conditions: Cryptosporidium parvum, HCT-8; Table S1, confirmed screening hits; read-out: C. parvum EC50 (95% CI)

EC50	SMILES
3.4 µM	O=C(Nc1ccc(Cl)c(Cl)c1)Nc1ccc(Cl)c(Cl)c1 [MMV665852, Clc1ccc(NC(=O)Nc2ccc(Cl)c(Cl)c2)cc1Cl]
0.29 µM	Oc1c(CN2CCN(c3ccccc3F)CC2)cc(Br)c2cccnc12 [MMV000760, Oc1c(CN2CCN(CC2)c3ccccc3F)cc(Br)c4cccnc14]
0.21 µM	Cc1ccnc(NC(c2cccc(OCc3ccccc3)c2)c2ccc3cccnc3c2O)c1 (stereo not shown) [MMV000720, Cc1ccnc(NC(c2cccc(OCc3ccccc3)c2)c4ccc5cccnc5c4O)c1]

SMILES	EC50
Cc1cc(=O)oc2c1ccc1oc(C(=O)c3ccccc3)c(C)c12 [MMV006753, CC1=CC(=O)Oc2c1ccc3oc(C(=O)c4ccccc4)c(C)c23]	0.25 µM

Same assay, conditions: Cryptosporidium parvum, HCT-8; Table S3, SAR of MMV665917; read-out: C. parvum EC50 (95% CI)

SMILES	EC50
O=C(NC1CCCCC1)N1CCN(c2ccc3nncn3n2)CC1 [Compound D-20, O=C(N1CCN(CC1)c1ccc2n(n1)cnn2)NC1CCCCC1]	> 25 µM
COc1ccc(C)cc1NC(=O)N1CCN(c2ccc3nncn3n2)CC1 [Compound D-34, COc1ccc(cc1NC(=O)N1CCN(CC1)c1ccc2n(n1)cnn2)C]	> 25 µM
CCOc1ccccc1NC(=O)N1CCN(c2ccc3nncn3n2)CC1 [Compound D-33, CCOc1ccccc1NC(=O)N1CCN(CC1)c1ccc2n(n1)cnn2]	> 25 µM
O=C(c1ccc(F)cc1)N1CCN(c2ccc3nnc(C4CC4)n3n2)CC1 [Compound D-29, Fc1ccc(cc1)C(=O)N1CCN(CC1)c1ccc2n(n1)c(nn2)C1CC1]	> 25 µM
CCOC(=O)N1CCN(c2ccc3nnc(C(F)(F)F)n3n2)CC1 [Compound D-4, CCOC(=O)N1CCN(CC1)c1ccc2n(n1)c(nn2)C(F)(F)F]	> 25 µM
O=C(Cc1ccccc1Cl)N1CCN(c2ccc3nncn3n2)CC1 [Compound D-42, O=C(N1CCN(CC1)c1ccc2n(n1)cnn2)Cc1ccccc1Cl]	> 25 µM
O=C(Nc1cccc(C(F)(F)F)c1)N1CCN(c2ccc3nncn3n2)CC1 [Compound D-27, O=C(N1CCN(CC1)c1ccc2n(n1)cnn2)Nc1cccc(c1)C(F)(F)F]	17 µM
COc1cc(NC(=O)N2CCN(c3ccc4nncn4n3)CC2)cc(OC)c1 [Compound D-35, COc1cc(cc(c1)OC)NC(=O)N1CCN(CC1)c1ccc2n(n1)cnn2]	> 25 µM
c1ccc(N2CCN(c3ccc4nncn4n3)CC2)cc1 [Compound D-9, c1ccc(cc1)N1CCN(CC1)c1ccc2n(n1)cnn2]	> 25 µM
FC(F)(F)c1nnc2ccc(N3CCN(Cc4ccccc4)CC3)nn12 [Compound D-3, FC(c1nnc2n1nc(cc2)N1CCN(CC1)Cc1ccccc1)(F)F]	> 25 µM
Cc1nnc2ccc(N3CCN(C(=O)NCc4ccccc4)CC3)nn12 [Compound D-21, O=C(N1CCN(CC1)c1ccc2n(n1)c(C)nn2)NCc1ccccc1]	> 25 µM
CC(Oc1ccc(Cl)cc1Cl)C(=O)N1CCN(c2ccc3nncn3n2)CC1 [Compound D-51, Clc1ccc(c(c1)Cl)OC(C(=O)N1CCN(CC1)c1ccc2n(n1)cnn2)C]	> 25 µM
O=C(Nc1ccc(F)c(Cl)c1)N1CCN(c2ccc3nncn3n2)CC1 [Compound D-38, O=C(N1CCN(CC1)c1ccc2n(n1)cnn2)Nc1ccc(c(c1)Cl)F]	12 µM
O=C(Nc1ccc(Cl)c(Cl)c1)N1CCN(c2ccccc2)CC1 [Compound D-74, O=C(Nc1ccc(Cl)c(Cl)c1)N2CCN(CC2)c3ccccc3]	20 µM
NS(=O)(=O)c1ccc(C(=O)N2CCN(c3ccc4nncn4n3)CC2)cc1 [Compound D-45, O=C(c1ccc(cc1)S(=O)(=O)N)N1CCN(CC1)c1ccc2n(n1)cnn2]	> 25 µM
O=S(=O)(c1ccc(Oc2ccccc2)cc1)N1CCN(c2ccc3nncn3n2)CC1 [Compound D-79, O=S(N1CCN(C2=NN3C(C=C2)=NN=C3)CC1)(C4=CC=C(OC5=CC=CC=C5)C=C4)=O]	12 µM
O=C(Nc1ccc(F)c(Cl)c1)N1CCN(c2ccc3nnc(C4CC4)n3n2)CC1 [Compound D-43, O=C(N1CCN(CC1)c1ccc2n(n1)c(nn2)C1CC1)Nc1ccc(c(c1)Cl)F]	> 25 µM
O=C(Nc1ccc(C(F)(F)F)cc1)N1CCN(c2ccc3nncn3n2)CC1 [Compound D-75, FC(F)(F)c1ccc(cc1)NC(=O)N2CCN(CC2)c3ccc4nncn4n3]	11 µM
O=C(COc1ccc(F)cc1)N1CCN(c2ccc3nncn3n2)CC1 [Compound D-26, Fc1ccc(cc1)OCC(=O)N1CCN(CC1)c1ccc2n(n1)cnn2]	20 µM

SMILES	EC50
COc1ccc(N2CCN(c3ccc4nncn4n3)CC2)cc1 [Compound D-31, COc1ccc(cc1)N1CCN(CC1)c1ccc2n(n1)cnn2]	> 25 µM
O=C(c1ccc(S(=O)(=O)N2CCCC2)cc1)N1CCN(c2ccc3nncn3n2)CC1 [Compound D-48, O=C(c1ccc(cc1)S(=O)(=O)N1CCCC1)N1CCN(CC1)c1ccc2n(n1)cnn2]	> 25 µM
O=S(=O)(c1ccc(Cl)cc1)N1CCN(c2ccc3nncn3n2)CC1 [Compound D-23, Clc1ccc(cc1)S(=O)(=O)N1CCN(CC1)c1ccc2n(n1)cnn2]	> 25 µM
O=C(Cc1noc2ccccc12)N1CCN(c2ccc3nncn3n2)CC1 [Compound D-49, O=C(N1CCN(CC1)c1ccc2n(n1)cnn2)Cc1noc2c1cccc2]	> 25 µM
O=C(Nc1ccccc1)N1CCN(c2ccc3nncn3n2)CC1 [Compound D-18, O=C(N1CCN(CC1)c1ccc2n(n1)cnn2)Nc1ccccc1]	> 25 µM
COc1ccc(OC)c(NC(=O)N2CCN(c3ccc4nncn4n3)CC2)c1 [Compound D-40, COc1ccc(cc1NC(=O)N1CCN(CC1)c1ccc2n(n1)cnn2)OC]	> 25 µM
CC(C)c1ccc(NC(=O)N2CCN(c3ccc4nncn4n3)CC2)cc1 [Compound D-36, O=C(N1CCN(CC1)c1ccc2n(n1)cnn2)Nc1ccc(cc1)C(C)C]	> 25 µM
O=C(Nc1ccc(Cl)c(Cl)c1)N1CCN(CCn2cccn2)CC1 [Compound D-81, O=C(N1CCN(CCN2N=CC=C2)CC1)NC3=CC=C(Cl)C(Cl)=C3]	> 25 µM
CN(C)S(=O)(=O)c1ccc(C(=O)N2CCN(c3ccc4nncn4n3)CC2)cc1 [Compound D-44, O=C(c1ccc(cc1)S(=O)(=O)N(C)C)N1CCN(CC1)c1ccc2n(n1)cnn2]	7.1 µM
O=C(NC1CCCCC1)N1CCN(c2ccc3nnc(C4CC4)n3n2)CC1 [Compound D-22, O=C(N1CCN(CC1)c1ccc2n(n1)c(nn2)C1CC1)NC1CCCCC1]	> 25 µM
O=C(COc1cccc(Cl)c1)N1CCN(c2ccc3nncn3n2)CC1 [Compound D-41, Clc1cccc(c1)OCC(=O)N1CCN(CC1)c1ccc2n(n1)cnn2]	18 µM
O=C(c1ccc(Cl)cc1)N1CCN(c2ccc3nncn3n2)CC1 [Compound D-46, Clc1ccc(cc1)C(=O)N1CCN(CC1)c1ccc2n(n1)cnn2]	> 25 µM
O=C(Nc1ccc(Cl)c(Cl)c1)N1CCN(c2nc3ccccc3[nH]2)CC1 [Compound D-80, O=C(N1CCN(C2=NC3=C(C=CC=C3)N2)CC1)NC4=CC=C(Cl)C(Cl)=C4]	17 µM
O=C(Nc1cccc(Cl)c1)N1CCN(c2ccc3nncn3n2)CC1 [Compound D-77, Clc1cccc(c1)NC(=O)N2CCN(CC2)c3ccc4nncn4n3]	~23.7 µM
O=C(Nc1ccc(OC(F)(F)F)cc1)N1CCN(c2ccc3nncn3n2)CC1 [Compound D-76, FC(F)(F)Oc1ccc(cc1)NC(=O)N2CCN(CC2)c3ccc4nncn4n3]	> 25 µM
CN1CCN(c2ccc3nnc(C(F)(F)F)n3n2)CC1 [Compound D-2, CN1CCN(CC1)c1ccc2n(n1)c(nn2)C(F)(F)F]	> 25 µM
O=C(Nc1cc(Cl)ccc1Cl)N1CCN(c2ccc3nncn3n2)CC1 [Compound D-32, Clc1ccc(c(c1)NC(=O)N1CCN(CC1)c1ccc2n(n1)cnn2)Cl]	~24.8 µM
O=C(COc1ccc(Cl)cc1Cl)N1CCN(c2ccc3nncn3n2)CC1 [Compound D-50, Clc1ccc(c(c1)Cl)OCC(=O)N1CCN(CC1)c1ccc2n(n1)cnn2]	16 µM
O=C(Nc1cc(F)ccc1F)N1CCN(c2ccc3nncn3n2)CC1 [Compound D-37, Fc1ccc(c(c1)NC(=O)N1CCN(CC1)c1ccc2n(n1)cnn2)F]	> 25 µM

Same assay, conditions: Cryptosporidium parvum; inside HCT-8 cells, 48 h incubation; Fig. 1; read-out: EC50, anti-C. parvum dose response

SMILES	EC50
O=C(COc1cccc(Cl)c1)N1CCN(c2ccc3nncn3n2)CC1 [Compound D-41, Clc1cccc(c1)OCC(=O)N1CCN(CC1)c1ccc2n(n1)cnn2]	~18 µM

Same assay, conditions: Table S1, confirmed screening hits; read-out: C. parvum EC50 (95% CI)

EC50	SMILES
0.12 µM	Cc1cccc(-n2ncc3c(=O)[nH]c(-n4nc(C)cc4NC(=O)c4cc5ccccc5o4)nc32)c1 [MMV403679, c1(c(cnn1c2cccc(C)c2)C(=O)N3)N=C3n4nc(C)cc4NC(=O)c5cc(cccc6)c6o5]

Same assay, conditions: Table S3, SAR of MMV665917; read-out: C. parvum EC50 (95% CI)

SMILES	EC50
O=C(Nc1ccc(Cl)cc1)N1CCN(c2ccc3nncn3n2)CC1 [Compound D-78, O=C(N1CCN(C2=NN3C(C=C2)=NN=C3)CC1)NC5=CC=C(Cl)C=C5]	> 25 µM
